Like-named read-outs stand apart in the source and are kept apart here. Values belong to the molecule of their own block, whether it stands above or below them.
Tests used:
in vivo [1] = settings: female, Sprague Dawley, rat, sc
in vivo [2] = settings: rat, sc, 20 ug/kg
[3] = set-up: AUCR: unit not given beside the values; settings: in vivo
clinical = settings: female, human, in vivo; for AUC(0-inf): AUC0-inf; for Tmax: Tmax (Median); for half-life: t1/2

- level at 0.25 h (in vivo [1]): 0.0108 ± 0.0036 ng/mL
- Cmax (in vivo [2]; Cmax): 8.9 ng/mL
- Tmax (in vivo [2]; Tmax): 10 min
- half-life (in vivo [2]; t1/2): 31 min
Structure (SMILES): CC[C@H](C)[C@H](NC(=O)[C@H](CO)NC(=O)[C@H](CCCCN)NC(=O)CNC(=O)[C@H](CCCCN)NC(=O)[C@H](CC(=O)O)NC(=O)[C@H](Cc1cnc[nH]1)NC(=O)[C@H](CC(C)C)NC(=O)[C@H](CC(C)C)NC(=O)[C@H](CCC(N)=O)NC(=O)[C@H](Cc1cnc[nH]1)NC(=O)[C@H](CCC(=O)O)NC(=O)[C@H](CO)NC(=O)[C@@H](NC(=O)[C@H](C)N)C(C)C)C(=O)N[C@@H](CCC(N)=O)C(=O)N[C@@H](CC(=O)O)C(=O)N[C@@H](CC(C)C)C(=O)N[C@@H](CCCNC(=N)N)C(=O)N[C@@H](CCCNC(=N)N)C(=O)N[C@@H](CCCNC(=N)N)C(=O)N[C@@H](CCC(=O)O)C(=O)N[C@@H](CC(C)C)C(=O)N[C@@H](CC(C)C)C(=O)N[C@@H](CCC(=O)O)C(=O)N[C@@H](CCCCN)C(=O)N[C@@H](CC(C)C)C(=O)N[C@@H](CC(C)C)C(=O)NC(C)(C)C(=O)N[C@@H](CCCCN)C(=O)N[C@@H](CC(C)C)C(=O)N[C@@H](Cc1cnc[nH]1)C(=O)N[C@H](C(=O)N[C@@H](C)C(N)=O)[C@@H](C)O [reference SC]

- AUC0-inf/dose ([3]; 100 ug): 1.77 ± 0.869 pg·h/mL/µg
- AUC0-tau/dose ([3]; 100 ug): 1.77 ± 0.868 pg·h/mL/µg
- AUCR ([3]; 100 ug): 0.898 ± 0.0169
- CL/F ([3]; 100 ug): 666.2 ± 284.4 L/h
- AUC0-inf/dose ([3]; sc): 7.92 ± 2.83 pg·h/mL/µg
- AUC0-tau/dose ([3]; sc): 7.91 ± 2.83 pg·h/mL/µg
- Mean Dose Normalized AUC0-inf, SC Dose ([3]; sc): 7.92
- AUC(0-inf) (clinical; 100 ug): 0.177 ± 0.0869 ng·h/mL
- AUC(0-t) (clinical; 100 ug, AUC0-t): 0.154 ± 0.0693 ng·h/mL
- AUC (clinical; 100 ug, AUC0-tau): 0.177 ± 0.0868 ng·h/mL
- Cmax (clinical; 100 ug, Cmax): 0.317 ± 0.0806 ng/mL
- Tmax (clinical; 100 ug): 12.1 min
- Vd/F (clinical; 100 ug): 366 ± 128 L
- half-life (clinical; 100 ug): 24.1 ± 7.56 min
- AUC(0-inf) (clinical; 150 ug): 0.269 ± 0.265 ng·h/mL
- Tmax (clinical; 150 ug): 9.84 min
- half-life (clinical; 150 ug): 34.1 ± 28.3 min
- Tmax (clinical): 7.8 min
- Vd/F (clinical): 491 ± 208 L
- CL/F (clinical; sc): 2340 mL/min
- Tmax (clinical; sc): 25.3 min
- Vd/F (clinical; sc): 197 ± 86.2 L
- half-life (clinical; sc): 58.2 ± 11.1 min
- half-life (clinical): 28 ± 25 min
- CL/F (clinical; topical or ocular, 100 ug): 6710 mL/min
Structure (SMILES): CC[C@H](C)[C@H](NC(=O)[C@H](CO)NC(=O)[C@H](CCCCN)NC(=O)CNC(=O)[C@H](CCCCN)NC(=O)[C@H](CC(=O)O)NC(=O)[C@H](Cc1cnc[nH]1)NC(=O)[C@H](CC(C)C)NC(=O)[C@H](CC(C)C)NC(=O)[C@H](CCC(N)=O)NC(=O)[C@H](Cc1cnc[nH]1)NC(=O)[C@H](CCC(=O)O)NC(=O)[C@H](CO)NC(=O)[C@@H](NC(=O)[C@H](C)N)C(C)C)C(=O)N[C@@H](CCC(N)=O)C(=O)N[C@@H](CC(=O)O)C(=O)N[C@@H](CC(C)C)C(=O)N[C@@H](CCCNC(=N)N)C(=O)N[C@@H](CCCNC(=N)N)C(=O)N[C@@H](CCCNC(=N)N)C(=O)N[C@@H](CCC(=O)O)C(=O)N[C@@H](CC(C)C)C(=O)N[C@@H](CC(C)C)C(=O)N[C@@H](CCC(=O)O)C(=O)N[C@@H](CCCCN)C(=O)N[C@@H](CC(C)C)C(=O)N[C@@H](CC(C)C)C(=O)NC(C)(C)C(=O)N[C@@H](CCCCN)C(=O)N[C@@H](CC(C)C)C(=O)N[C@@H](Cc1cnc[nH]1)C(=O)N[C@H](C(=O)N[C@@H](C)C(N)=O)[C@@H](C)O
